# Laboratory results as given in US7960339B2, “Antimicrobial peptides” (Österreichische Akademie der Wissenschaften, priority 2006, dated 2011).
# Where two headings read alike, the source gives them in different places. Square brackets hold non-standard residues; d marks the D form. Ends that are not written are not given here. Peptide text beside a SMILES is read from it. * marks the point of attachment. Dicyclohexylacetyl = O=C(C(C1CCCCC1)C1CCCCC1)*; Butanoyl(2,2-Me2) = CCC(C)(C)C(=O)*; X1 = CCCCC(CC)C(=O)*
# Columns and labels:
# [1] = tested on: C. neoformans ATCC 32045; format: cell-based
# Experimental: C. neoformans ATCC 32045 cultures were maintained on yeast medium (YM; Difco Laboratories, Detroit, Mich.) agar plates at 4° C. Prior to the assay, the cultures were grown on agar plates and incubated for 72 hrs at 26° C. Two colonies of these newly grown fungal cultures were then inoculated in 5 ml of 2×YM broth, vortexed, and diluted 10-fold in 2×YM broth, for an approximate final assay concentration of 1×105 to 5×10^5 CFU/ml. In 96-well tissue culture plates, fungal suspensions in 2×YM broth were added to the peptides dispensed at concentrations ranging from 1 mg/ml to 1 μg/ml derived from serial twofold dilutions in sterile water. The plates were then incubated for 72 hrs at 26° C. The relative percent growth of the fungi found for each test sample was determined by the optical density at 620 nm (OD620) by using a Titertek Multiskan Plus apparatus. […] The IC50 were calculated by using a sigmoidal curve-fitting software program (Graphpad Prism; ISI Software, San Diego, Calif.).
# [2] = tested on: LPS Re595; experiment: Local Shwartzmann reaction in rabbit (lipid A-induced hemorrhagic dermonecrosis); format: in vivo, New Zealand White rabbits; settings: i.d. injection in shaved dorsal region; open necrosis observed after 72-96 hours; minimum 3 injections in minimum 3 rabbits
# Experimental: (§1) The principle of lipid A-induced pro-inflammatory cytokine activity leading to hemorrhagic dermonecrosis (classical Shwartzmann reaction) was tested in rabbit, an animal model very close to humans in terms of sensitivity to LPS activity, and was compared to the inhibition of the lipid A-induced LAL enzymatic cascade activation leading to clot. Thereby, New Zealand White rabbits were injected in the shaved dorsal region with S. minnesota Re595 lipid A alone or with peptide 1:100 (w/w) (5 μg in 0.2 ml saline buffer; route i.d.). […] Polymyxin B (PmB) was used as a control.
# [3] = tested on: LPS S. Minnesota Re595; experiment: Endpoint LAL activity (Limulus gel-clotting test), inhibition of lipid A-induced LAL enzymatic cascade; format: biochemical; settings: sensibility 0.125 EU/ml, peptide:LPS 100:1 (w/w), minimum of 6 tests in triplicate
# Experimental: as §1
# [4] = 50% growth inhibition, OD620, 72 hrs at 26° C., 2×YM broth
# [5] = lowest concentration that resulted in 2% growth, OD620, 72 hrs at 26° C., 2×YM broth
Molecule,"average IC50 [1, 4] [µg/mL]","average MIC [1, 5] [µg/mL]",Local Shwartzmann reaction in rabbit peptide: LPS Re595 100:1 (w/w) [2],Endpoint LAL activity peptide: LPS Re595 100:1 (w/w) [3],"average IC50 ([1]; ATCC 32045, 72 h) [µg/mL]","average MIC ([1]; ATCC 32045, 72 h) [µg/mL]"
"CC[C@H](C)[C@H](NC(=O)[C@H](CCCNC(=N)N)NC(=O)[C@@H](NC(=O)[C@H](CCCNC(=N)N)NC(=O)[C@H](Cc1c[nH]c2ccccc12)NC(=O)[C@H](Cc1ccccc1)NC(=O)[C@@H]1CCCN1C(=O)C(C)(C)CC)[C@@H](C)CC)C(=O)N[C@@H](CCCNC(=N)N)C(=O)N[C@@H](CCCNC(=N)N)C(N)=O [VS1-52, 2,2-dimethylbutanoyl PFWRIRIRR-NH2] ({Butanoyl(2,2-Me2)}-PFWRIRIRR-NH2)",2,4,NEGATIVE,NEGATIVE,–,–
FWQRNIRKVRRRI-NH2 [Peptide P1-12],–,–,NEGATIVE,NEGATIVE,–,–
RFWQRNIRIRR-NH2 [Peptide P2-18],–,–,NEGATIVE,NEGATIVE,–,–
"CC[C@H](C)[C@H](NC(=O)[C@H](CCCNC(=N)N)NC(=O)[C@H](CCCNC(=N)N)NC(=O)[C@H](CCC(N)=O)NC(=O)[C@H](Cc1c[nH]c2ccccc12)NC(=O)[C@@H](N)Cc1ccccc1)C(=O)N[C@@H](CCCNC(=N)N)C(=O)N[C@@H](CCCNC(=N)N)C(=O)N[C@@H](Cc1c[nH]c2ccccc12)C(=O)N[C@@H](CCCNC(=N)N)C(=O)N[C@@H](CCCNC(=N)N)C(N)=O [VS1-18, FWQRRIRRWRR-NH2] (H-FWQRRIRRWRR-NH2; N-terminus assumed)",7,32,NEGATIVE,NEGATIVE,–,–
FwRNIRIRR-NH2 (F[dW]RNIRIRR-NH2; N-terminus assumed; SMILES CC[C@H](C)[C@H](NC(=O)[C@H](CCCNC(=N)N)NC(=O)[C@@H](NC(=O)[C@H](CC(N)=O)NC(=O)[C@H](CCCNC(=N)N)NC(=O)[C@@H](Cc1c[nH]c2ccccc12)NC(=O)[C@@H](N)Cc1ccccc1)[C@@H](C)CC)C(=O)N[C@@H](CCCNC(=N)N)C(=O)N[C@@H](CCCNC(=N)N)C(N)=O) [Peptide P2-11],–,–,NEGATIVE,NEGATIVE,–,–
"CC[C@H](C)[C@@H]1NC(=O)[C@H](CCCNC(=N)N)NC(=O)[C@H]([C@@H](C)CC)NC(=O)[C@H](CCCNC(=N)N)NC(=O)[C@H](Cc2c[nH]c3ccccc23)NC(=O)[C@H](Cc2ccccc2)NC(=O)[C@H](CCCNC(=N)N)NC(=O)[C@H](CCCNC(=N)N)NC1=O [VF50, cyclo FWRIRIRR-NH2] (cyclo(FWRIRIRR))",–,–,NEGATIVE,NEGATIVE,–,–
"CC[C@H](C)[C@H](NC(=O)[C@H](CC(N)=O)NC(=O)[C@H](CCCNC(=N)N)NC(=O)[C@H](CCC(N)=O)NC(=O)[C@H](Cc1c[nH]c2ccccc12)NC(=O)[C@H](Cc1ccccc1)NC(=O)C(C)(C)CC)C(=O)N[C@@H](CCCNC(=N)N)C(=O)N[C@@H](CCCCN)C(=O)N[C@@H](Cc1c[nH]c2ccccc12)C(=O)N[C@@H](CCCNC(=N)N)C(N)=O [VS1-42, 2,2-dimethylbutanoyl FWQRNIRKWR-NH2] ({Butanoyl(2,2-Me2)}-FWQRNIRKWR-NH2)",6,16,NEGATIVE,NEGATIVE,–,–
KRWSWKK-NH2 [Peptide P1-63],–,–,NEGATIVE,NEGATIVE,–,–
RWQRNIRIRR-NH2 [Peptide P2-19],–,–,NEGATIVE,NEGATIVE,–,–
FWQRNYRKVR-NH2 [Peptide P1-39],–,–,NEGATIVE,NEGATIVE,–,–
"CCCCC(CC)C(=O)N[C@@H](Cc1ccccc1)C(=O)N[C@@H](Cc1c[nH]c2ccccc12)C(=O)N[C@@H](CCCNC(=N)N)C(=O)N[C@@H](CCCNC(=N)N)C(=O)N[C@@H](Cc1ccccc1)C(=O)N[C@@H](Cc1c[nH]c2ccccc12)C(=O)N[C@@H](CCCNC(=N)N)C(=O)N[C@@H](CCCNC(=N)N)C(N)=O (stereo partly shown) [VS1-61, 2-ethylhexanoyl FWRRFWRR-NH2] (X1-FWRRFWRR-NH2)",–,–,–,–,6,16
"CC[C@H](C)[C@H](NC(=O)[C@H](CCC(N)=O)NC(=O)[C@H](CCCNC(=N)N)NC(=O)[C@H](CCCNC(=N)N)NC(=O)[C@H](Cc1c[nH]c2ccccc12)NC(=O)[C@H](Cc1ccccc1)NC(=O)[C@@H]1CCCN1)C(=O)N[C@@H](CCCNC(=N)N)C(=O)N[C@@H](CCCNC(=N)N)C(N)=O [VS1-26, PFWRRQIRR-NH2] (H-PFWRRQIRR-NH2; N-terminus assumed)",–,–,–,–,6,32
"CC[C@H](C)[C@H](NC(=O)[C@H](CCCNC(=N)N)NC(=O)[C@@H](NC(=O)[C@H](CCCNC(=N)N)NC(=O)[C@H](Cc1c[nH]c2ccccc12)NC(=O)[C@H](Cc1ccccc1)NC(=O)[C@@H]1CCCN1C(=O)C(C1CCCCC1)C1CCCCC1)[C@@H](C)CC)C(=O)N[C@@H](CCCNC(=N)N)C(=O)N[C@@H](CCCNC(=N)N)C(N)=O [VS1-54, dicyclohexylacetyl PFWRIRIRR-NH2] (Dicyclohexylacetyl-PFWRIRIRR-NH2)",–,–,–,–,3,8
"CC[C@H](C)[C@H](NC(=O)[C@H](CCCNC(=N)N)NC(=O)[C@@H](NC(=O)[C@H](CCCNC(=N)N)NC(=O)[C@H](CCCNC(=N)N)NC(=O)[C@H](CCCNC(=N)N)NC(=O)[C@H](Cc1c[nH]c2ccccc12)NC(=O)[C@H](Cc1ccccc1)NC(=O)[C@@H]1CCCN1)[C@@H](C)CC)C(=O)N[C@@H](CCCNC(=N)N)C(=O)N[C@@H](CCCNC(=N)N)C(N)=O [VS1-37, PFWRRRIRIRR-NH2] (H-PFWRRRIRIRR-NH2; N-terminus assumed)",–,–,–,–,9,32
"CC[C@H](C)[C@H](NC(=O)[C@H](CCCNC(=N)N)NC(=O)[C@@H](NC(=O)[C@H](CC(N)=O)NC(=O)[C@H](CCCNC(=N)N)NC(=O)[C@H](CCC(N)=O)NC(=O)[C@H](Cc1c[nH]c2ccccc12)NC(=O)[C@@H](N)Cc1ccccc1)[C@@H](C)CC)C(=O)N[C@@H](CCCNC(=N)N)C(=O)N[C@@H](CCCNC(=N)N)C(N)=O [VS1-13, FWQRNIRIRR-NH2] (H-FWQRNIRIRR-NH2; N-terminus assumed)",–,–,–,–,8,32
"CC[C@H](C)[C@H](NC(=O)[C@H](CCCNC(=N)N)NC(=O)[C@@H](NC(=O)[C@H](CCCNC(=N)N)NC(=O)[C@H](Cc1c[nH]c2ccccc12)NC(=O)[C@@H]1CCCN1)[C@@H](C)CC)C(=O)N[C@@H](CCCNC(=N)N)C(=O)N[C@@H](CCCNC(=N)N)C(N)=O [VS1-34, PWRIRIRR-NH2] (H-PWRIRIRR-NH2; N-terminus assumed)",–,–,–,–,2,8
"N=C(N)NCCC[C@H](NC(=O)[C@H](CCCNC(=N)N)NC(=O)[C@H](Cc1c[nH]c2ccccc12)NC(=O)[C@H](CCCNC(=N)N)NC(=O)[C@H](CCCCN)NC(=O)[C@H](CCCNC(=N)N)NC(=O)[C@H](Cc1c[nH]c2ccccc12)NC(=O)[C@H](Cc1ccccc1)NC(=O)[C@@H]1CCCN1)C(N)=O [VS1-31, PFWRKRWRR-NH2] (H-PFWRKRWRR-NH2; N-terminus assumed)",–,–,–,–,8,32
